Here are results for seven compounds from PMC9457941, “Synthesis and Kinase Inhibitory Potencies of Pyrazolo[3,4-g]isoquinolines” (Molecules, 2022).

Molecules are shown by their SMILES. A value given as a limit tells only on which side of the number the result lay.

One data set concerns the target T1, CDK5/p25 (Homo sapiens, UniProt Q00535).
T1 construct: host or cells: bacteria
The experiment in a line: ADP-Glo kinase inhibition assay, CDK5/p25. In kind it is biochemical. To be noted: for remaining activity at 1 µM: read-out: CDK5 % residual activity at 1 μM; for remaining activity at 10 µM: read-out: CDK5 % residual activity at 10 μM. The procedure: (§1) Kinase enzymatic activities were assayed in 384 well plates using the ADP-GloTM assay kit (Promega, Madison, WI, USA) according to the manufacturer’s guidance. Briefly, the reactions were carried out in a final volume of 6 μL for 30 min at 30 °C in an appropriate kinase buffer (10 mM MgCl2, 1 mM EGTA, 1 mM DTT, 25 mM Tris-HCl pH 7.5, 50 μg/mL heparin), with either protein or peptide as substrate in the presence of 10 μM ATP (40 mM Tris pH 7.5, 20 mM MgCl2 and 0.1 mg/mL of BSA). Afterward, 6 μL of ADP-GloTM Kinase Reagent was added to stop the kinase reaction. After an incubation time of 50 min at room temperature (RT), 12 μL of Kinase Detection Reagent was added for 1 h at RT. The transmitted signal was measured using the Envision (Perkin Elmer, Waltham, MA, USA) microplate luminometer and expressed in relative light unit (RLU). In order to determine the half maximal inhibitory concentration (IC50), the assays were performed in duplicate in the absence or presence of increasing doses of the tested compounds. GraphPad Prism6 software (GraphPad Software, San Diego, CA, USA) was used to fit dose–response curves and to determine the IC50 values. Kinase activities are expressed in the percentage of maximal activity, i.e., measured in the absence of an inhibitor. Peptide substrates were obtained from Proteogenix (Schiltigheim, France).
(§2) The following protein kinases were analyzed in this study: CDK5/p25 (human, recombinant, expressed in bacteria) was assayed with 0.8 μg/μL of histone H1 as substrate; CDK9/CyclinT (human, recombinant, expressed by baculovirus in Sf9 insect cells) were assayed with 0.27 μg/μL of the following peptide: […], as substrate; CK1ε (human, recombinant, expressed by baculovirus in Sf9 insect cells) was assayed with 0.022 μg/μL of the following peptide: […]pAYSITA (“Sp” stands for phosphorylated serine) as CK1-specific substrate; GSK3β (human, recombinant, expressed by baculovirus in Sf9 insect cells) were assayed with 0.010 μg/μL of GS-1 peptide, a GSK-3-selective substrate ([…]pEDEEE); Haspin-kd (human, kinase domain, amino acids 470–798, recombinant, expressed in bacteria) was assayed with 0.007 μg/μL of histone H3 (1–21) peptide ([…]) as substrate; Pim-1 (human proto-oncogene, recombinant, expressed in bacteria) was assayed with 0.8 μg/μL of histone H1 as substrate; MmCLK1 (from Mus musculus, recombinant, expressed in bacteria) was assayed with 0.027 μg/μL of the following peptide: […] as substrate; RnDYRK1A-kd (Rattus norvegicus, amino acids 1–499 including the kinase domain, recombinant, expressed in bacteria, DNA vector kindly provided by Dr. W. Becker, Aachen, Germany) was assayed with 0.033 μg/μL of the following peptide: […] as substrate.
(In general: ADP-Glo first removes unused ATP, then detects ADP through luciferase.)

Another data set concerns the target T2, GSK3β (Homo sapiens, UniProt P49841).
T2 construct: host or cells: Sf9 insect cells (baculovirus)
Description: ADP-Glo kinase inhibition assay, GSK3β. In kind it is biochemical. To be noted: for remaining activity at 1 µM: read-out: GSK3 % residual activity at 1 μM; for remaining activity at 10 µM: read-out: GSK3 % residual activity at 10 μM. The procedure:
as §1, §2

In data set [1] the target is T3, Haspin-kd (human, kinase domain, amino acids 470–798) (Homo sapiens, UniProt Q8TF76).
T3 construct: Haspin-kd (human, kinase domain, amino acids 470–798, recombinant, expressed in bacteria); host or cells: bacteria
T3 sequence (Q8TF76 470-798): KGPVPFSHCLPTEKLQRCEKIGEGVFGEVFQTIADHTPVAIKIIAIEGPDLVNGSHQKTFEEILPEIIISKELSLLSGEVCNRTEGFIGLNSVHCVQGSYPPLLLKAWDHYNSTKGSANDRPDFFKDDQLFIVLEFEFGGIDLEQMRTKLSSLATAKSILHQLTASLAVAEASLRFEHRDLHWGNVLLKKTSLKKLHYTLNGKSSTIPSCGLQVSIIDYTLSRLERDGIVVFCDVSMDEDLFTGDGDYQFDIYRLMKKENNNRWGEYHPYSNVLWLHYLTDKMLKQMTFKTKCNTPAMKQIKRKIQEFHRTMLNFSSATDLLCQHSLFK
Description: ADP-Glo kinase inhibition assay, Haspin. It is filed as biochemical. As to conditions: for IC50: 10 μM ATP, duplicate; for remaining activity at 1 µM: read-out: Haspin % residual activity at 1 μM; for remaining activity at 10 µM: read-out: Haspin % residual activity at 10 μM; for inhibition at 1 µM: read-out: Haspin inhibition at 1 μM, 1 μM compound, % inhibition. The procedure: as §1

A further data set has as its target T4, MmCLK1 (Mus musculus, UniProt P22518).
T4 construct: host or cells: bacteria
Description: ADP-Glo kinase inhibition assay, CLK1. In kind it is biochemical. As to conditions: for IC50: 10 μM ATP, duplicate, read-out: CLK1 IC50; for remaining activity at 1 µM: read-out: CLK1 % residual activity at 1 μM; for remaining activity at 10 µM: read-out: CLK1 % residual activity at 10 μM. As to the method: as §1, §2

The next data set has as its target T5, Pim-1 (Homo sapiens, UniProt P11309).
T5 construct: host or cells: bacteria
The experiment in a line: ADP-Glo kinase inhibition assay, Pim-1. It is filed as biochemical. As to conditions: 10 μM ATP, duplicate; for remaining activity at 1 µM: 1 μM compound, read-out: PIM1 % residual activity at 1 μM; for remaining activity at 10 µM: 10 μM compound, read-out: PIM1 % residual activity at 10 μM. The procedure: as §1, §2

For the next data set, the target named is T6, CK1ε (Homo sapiens, UniProt P49674).
T6 construct: host or cells: Sf9 insect cells (baculovirus)
The experiment in a line: ADP-Glo kinase inhibition assay, CK1ε. As to conditions: 10 μM ATP, duplicate; for remaining activity at 1 µM: 1 μM compound, read-out: CK1 % residual activity at 1 μM; for remaining activity at 10 µM: 10 μM compound, read-out: CK1 % residual activity at 10 μM. It is filed as biochemical. The procedure:
as §1, §2

The next data set concerns the target T7, CDK9/CyclinT (Homo sapiens, UniProt P50750).
T7 construct: host or cells: Sf9 insect cells (baculovirus)
Description: ADP-Glo kinase inhibition assay, CDK9/CyclinT. To be noted: for IC50: 10 μM ATP, duplicate; for remaining activity at 1 µM: read-out: CDK9 % residual activity at 1 μM; for remaining activity at 10 µM: read-out: CDK9 % residual activity at 10 μM. It is filed as biochemical. The procedure:
as §1, §2

For the next data set, the target named is T8, RnDYRK1A-kd (Rattus norvegicus, UniProt Q63470).
T8 construct: RnDYRK1A-kd (Rattus norvegicus, amino acids 1–499 including the kinase domain, recombinant, expressed in bacteria); made in house; host or cells: bacteria
The experiment in a line: ADP-Glo kinase inhibition assay, DYRK1A. In kind it is biochemical. As to conditions: for remaining activity at 1 µM: read-out: DYRK1A % residual activity at 1 μM; for remaining activity at 10 µM: read-out: DYRK1A % residual activity at 10 μM. The procedure: as §1, §2

T2 sequence (P49841 whole entry): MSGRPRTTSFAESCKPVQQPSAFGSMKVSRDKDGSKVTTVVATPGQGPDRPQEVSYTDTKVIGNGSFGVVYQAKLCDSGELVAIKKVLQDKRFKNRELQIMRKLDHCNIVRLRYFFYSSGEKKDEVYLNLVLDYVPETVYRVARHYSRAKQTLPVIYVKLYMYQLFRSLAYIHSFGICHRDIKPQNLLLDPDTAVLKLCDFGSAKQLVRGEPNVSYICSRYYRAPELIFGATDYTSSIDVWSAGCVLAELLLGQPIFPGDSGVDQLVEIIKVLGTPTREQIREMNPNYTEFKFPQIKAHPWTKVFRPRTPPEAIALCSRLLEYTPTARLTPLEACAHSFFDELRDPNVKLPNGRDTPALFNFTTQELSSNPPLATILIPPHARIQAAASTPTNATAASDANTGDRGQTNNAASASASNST
T5 sequence (P11309 whole entry): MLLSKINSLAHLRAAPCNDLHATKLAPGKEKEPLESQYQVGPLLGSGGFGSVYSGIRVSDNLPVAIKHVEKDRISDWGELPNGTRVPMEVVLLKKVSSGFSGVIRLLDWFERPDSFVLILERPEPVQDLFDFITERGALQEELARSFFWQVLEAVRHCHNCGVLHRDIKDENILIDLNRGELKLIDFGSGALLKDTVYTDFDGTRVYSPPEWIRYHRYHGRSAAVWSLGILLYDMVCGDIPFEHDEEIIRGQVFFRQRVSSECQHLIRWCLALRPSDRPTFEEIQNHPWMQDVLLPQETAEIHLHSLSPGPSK
T1 sequence (Q00535 whole entry): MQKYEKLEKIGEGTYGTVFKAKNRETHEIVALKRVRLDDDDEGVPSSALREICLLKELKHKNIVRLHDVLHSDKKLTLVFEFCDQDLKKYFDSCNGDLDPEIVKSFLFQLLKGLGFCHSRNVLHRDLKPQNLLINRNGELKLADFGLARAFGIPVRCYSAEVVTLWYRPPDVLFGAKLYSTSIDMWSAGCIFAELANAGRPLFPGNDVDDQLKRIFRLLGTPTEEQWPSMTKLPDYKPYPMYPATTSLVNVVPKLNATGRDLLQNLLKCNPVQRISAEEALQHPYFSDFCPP
T1 sequence (Q15078 99-307, further chain): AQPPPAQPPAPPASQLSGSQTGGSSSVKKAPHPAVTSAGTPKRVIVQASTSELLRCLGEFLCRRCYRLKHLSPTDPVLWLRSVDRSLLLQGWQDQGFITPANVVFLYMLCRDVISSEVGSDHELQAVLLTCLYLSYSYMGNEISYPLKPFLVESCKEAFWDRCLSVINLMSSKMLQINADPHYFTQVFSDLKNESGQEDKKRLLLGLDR
T7 sequence (O60563 whole entry): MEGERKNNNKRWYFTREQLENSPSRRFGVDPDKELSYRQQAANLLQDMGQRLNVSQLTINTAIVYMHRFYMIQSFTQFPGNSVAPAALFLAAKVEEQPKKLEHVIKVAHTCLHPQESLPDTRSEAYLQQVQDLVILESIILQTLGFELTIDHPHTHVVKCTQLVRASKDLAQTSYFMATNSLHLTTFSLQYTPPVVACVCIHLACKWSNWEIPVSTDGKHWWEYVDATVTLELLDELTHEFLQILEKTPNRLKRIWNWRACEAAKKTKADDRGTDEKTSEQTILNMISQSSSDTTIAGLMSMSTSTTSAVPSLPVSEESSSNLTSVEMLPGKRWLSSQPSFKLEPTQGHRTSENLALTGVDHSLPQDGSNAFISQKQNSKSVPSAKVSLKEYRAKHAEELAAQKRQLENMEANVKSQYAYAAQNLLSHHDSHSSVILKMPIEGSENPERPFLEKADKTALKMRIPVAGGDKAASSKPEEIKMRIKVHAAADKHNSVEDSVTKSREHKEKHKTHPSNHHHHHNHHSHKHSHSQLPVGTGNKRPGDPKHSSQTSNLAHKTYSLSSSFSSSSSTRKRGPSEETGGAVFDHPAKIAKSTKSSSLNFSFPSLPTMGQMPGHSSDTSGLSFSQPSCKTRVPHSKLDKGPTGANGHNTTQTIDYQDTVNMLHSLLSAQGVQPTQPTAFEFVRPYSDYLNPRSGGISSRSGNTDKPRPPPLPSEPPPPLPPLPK
T7 sequence (P50750 whole entry): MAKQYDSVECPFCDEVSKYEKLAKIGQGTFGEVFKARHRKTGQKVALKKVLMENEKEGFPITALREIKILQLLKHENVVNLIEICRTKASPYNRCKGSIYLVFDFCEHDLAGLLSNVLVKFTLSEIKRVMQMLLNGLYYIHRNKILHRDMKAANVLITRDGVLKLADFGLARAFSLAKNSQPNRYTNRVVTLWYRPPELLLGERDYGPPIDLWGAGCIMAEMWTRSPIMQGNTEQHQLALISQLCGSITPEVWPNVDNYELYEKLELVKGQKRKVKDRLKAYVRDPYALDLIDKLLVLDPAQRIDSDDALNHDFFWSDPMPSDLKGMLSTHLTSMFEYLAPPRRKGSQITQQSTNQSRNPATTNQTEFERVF
T4 sequence (P22518 whole entry): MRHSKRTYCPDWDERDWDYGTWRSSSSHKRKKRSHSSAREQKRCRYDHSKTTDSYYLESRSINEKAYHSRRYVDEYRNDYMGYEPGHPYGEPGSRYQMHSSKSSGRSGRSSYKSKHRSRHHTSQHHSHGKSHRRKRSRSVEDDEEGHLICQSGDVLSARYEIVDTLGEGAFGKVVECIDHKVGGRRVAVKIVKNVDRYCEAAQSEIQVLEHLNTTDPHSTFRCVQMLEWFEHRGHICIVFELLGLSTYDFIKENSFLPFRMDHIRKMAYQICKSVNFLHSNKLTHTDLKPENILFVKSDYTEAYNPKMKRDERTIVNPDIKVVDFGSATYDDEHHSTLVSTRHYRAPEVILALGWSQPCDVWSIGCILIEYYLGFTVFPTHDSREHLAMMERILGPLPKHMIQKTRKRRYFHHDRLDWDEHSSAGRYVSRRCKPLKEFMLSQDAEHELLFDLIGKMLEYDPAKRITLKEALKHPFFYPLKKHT
T6 sequence (P49674 whole entry): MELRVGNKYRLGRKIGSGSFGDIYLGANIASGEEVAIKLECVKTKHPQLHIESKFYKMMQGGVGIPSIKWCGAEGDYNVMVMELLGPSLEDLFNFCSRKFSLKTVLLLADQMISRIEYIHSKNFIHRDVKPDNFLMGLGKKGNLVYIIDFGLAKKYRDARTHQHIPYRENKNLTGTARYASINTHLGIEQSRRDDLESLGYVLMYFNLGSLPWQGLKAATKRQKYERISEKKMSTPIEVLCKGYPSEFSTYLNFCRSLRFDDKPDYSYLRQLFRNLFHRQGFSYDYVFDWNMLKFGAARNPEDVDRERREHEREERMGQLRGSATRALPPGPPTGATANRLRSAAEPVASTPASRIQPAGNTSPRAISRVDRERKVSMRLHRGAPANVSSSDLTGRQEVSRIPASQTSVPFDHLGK

The melting point is the temperature, or range, at which the solid turns liquid. As to `O=[N+]([O-])c1c2ccncc2cc2cn[nH]c12`, the melting point was more than 250 °C.
Same read-out and setting: the same measure for `CS(=O)(=O)O.O=[N+]([O-])c1c2ccncc2cc2cn[nH]c12`: more than 250 °C.
A word on the IC50: it is the point on the concentration scale where inhibition reaches its midpoint. As for `Cn1ncc2cc3cnccc3c(N)c21` [Compound 2b, 1-Methyl-1H-pyrazolo[3,4-g]isoquinolin-9-amine], the melting point was 174 to 175 °C. Also, at CDK5/p25, the remaining activity at 1 µM is 72% and the remaining activity at 10 µM came to 60%. On GSK3β, the remaining activity at 1 µM was found to be 68% and the remaining activity at 10 µM was 44%. Moreover, in data set [1], 112 nM corresponded to half-maximal inhibition (IC50), the remaining activity at 1 µM came out at 10% and the remaining activity at 10 µM was determined as 14%. Further, in [1] (Haspin vs. DYRK1A, which was more inhibited than CLK1), the “Selectivity Index (SI) Haspin vs. DYRK1A” value worked out at 2.4. Further, on MmCLK1, the IC50 is 548 nM, the remaining activity at 1 µM was 36% and the remaining activity at 10 µM came to 8%. Further, on Pim-1, the remaining activity at 1 µM came to 91% and the remaining activity at 10 µM was 71%. For the same compound, at CK1ε, the remaining activity at 1 µM worked out at 77% and the remaining activity at 10 µM was 42%. Further, on CDK9/CyclinT, half-maximal inhibition (IC50) required 578 nM, the remaining activity at 1 µM came to 39% and the remaining activity at 10 µM was 15%. For the same compound, the IC50 at RnDYRK1A-kd (10 μM ATP, duplicate, read-out: DYRK1A IC50) amounted to 273 nM. For the same compound, at RnDYRK1A-kd, the remaining activity at 1 µM came out at 18% and the remaining activity at 10 µM came to 5%.
Usually inhibition stands for the change of the read-out against control, counted positive when it falls. As to `CCc1c2cnccc2c([N+](=O)[O-])c2c1cnn2CC` [Compound 3b, 1,4-Diethyl-9-nitro-1H-pyrazolo[3,4-g]isoquinoline], the remaining activity at 1 µM is 33% at CDK5/p25; 28% at GSK3β; 63% in [1]; 19% on MmCLK1; 100% at Pim-1; 82% on CK1ε. The remaining activity at 1 µM at CDK9/CyclinT came out at 25%; on RnDYRK1A-kd, 100%. In addition, the remaining activity at 10 µM on CDK5/p25 is 16%; at GSK3β, 3%; in data set [1], 10%; at MmCLK1, 0%; at Pim-1 it was 89%; on CK1ε it was 25%. Moreover, the results for the remaining activity at 10 µM on CDK9/CyclinT and on RnDYRK1A-kd were 0% and 9%, respectively. Besides, the inhibition at 1 µM in data set [1] was not above 50%.
Turning to `CCCc1c2cnccc2c([N+](=O)[O-])c2c1cnn2CC` [Compound 3c, 1-Ethyl-9-nitro-4-propyl-1H-pyrazolo[3,4-g]isoquinoline], the remaining activity at 1 µM at CDK5/p25 is 54%; at GSK3β, 12%; in data set [1], 25%; at MmCLK1 it was 23%; at Pim-1 it was 86%; on CK1ε, 81%. Besides, the remaining activity at 1 µM at CDK9/CyclinT was 18%; on RnDYRK1A-kd, 95%. In addition, the remaining activity at 10 µM at CDK5/p25 was found to be 10%; at GSK3β it was 5%; in data set [1] it was 17%; at MmCLK1, 4%; on Pim-1, 88%; on CK1ε it was 35%. The remaining activity at 10 µM came to 4% on CDK9/CyclinT and 41% on RnDYRK1A-kd. Moreover, the IC50 stood at 218 nM at GSK3β (10 μM ATP, duplicate, read-out: GSK3 IC50); 497 nM in [1]; 363 nM on MmCLK1; 322 nM against CDK9/CyclinT.
As for `CCCCc1c2cnccc2c([N+](=O)[O-])c2c1cnn2CC` [Compound 3e, 4-Butyl-1-ethyl-9-nitro-1H-pyrazolo[3,4-g]isoquinoline], the remaining activity at 1 µM on CDK5/p25 was determined as 82%; on GSK3β, 39%; in [1], 78%; at MmCLK1, 58%; at Pim-1 it was 78%; at CK1ε, 100%. For the same compound, the values for the remaining activity at 1 µM on CDK9/CyclinT and at RnDYRK1A-kd were 33% and 72%, respectively. Moreover, the remaining activity at 10 µM was 57% on CDK5/p25; 10% at GSK3β; 19% in data set [1]; 16% at MmCLK1; 35% at Pim-1; 60% on CK1ε. Also, the results for the remaining activity at 10 µM at CDK9/CyclinT and at RnDYRK1A-kd were 10% and 16%, respectively.
`CCn1ncc2cc3cncc(Br)c3c([N+](=O)[O-])c21` [Compound 4, 8-Bromo-1-ethyl-9-nitro-1H-pyrazolo[3,4-g]isoquinoline]: the remaining activity at 1 µM at CDK5/p25 was determined as 92%; at GSK3β, 88%; in [1], 77%; at MmCLK1 it was 42%; on Pim-1 it was 77%; at CK1ε, 100%. Moreover, the figures for the remaining activity at 1 µM at CDK9/CyclinT and at RnDYRK1A-kd were 59% and 52%, respectively. Besides, the remaining activity at 10 µM on CDK5/p25 was determined as 32%; at GSK3β, 80%; in data set [1] it was 23%; at MmCLK1, 18%; at Pim-1 it was 54%; on CK1ε, 80%. The remaining activity at 10 µM was found to be 18% on CDK9/CyclinT and 25% at RnDYRK1A-kd. For the same compound, in [1], the inhibition at 1 µM came out at 23%.
